No end group written: not given here.
Columns and labels:
[1] = tested on: Mac-1 expressing CHO cells; experiment: Flow cytometry: binding of CD40L to Mac-1 expressing CHO cells; format: cell-based; conditions: peptides 50 μM
Procedure: (§1) Flow cytometric analysis, platelet activation assays, and quantification of leukocyte-platelet aggregates, were performed as previously described (Zirlik et al., 2007). Binding of cM7 to CD40L-expressing murine fibroblasts was determined by quantification of FITC-coupled cM7. Binding of CD40L to Mac-1 expressing CHO-cells or human leukocytes was performed by incubation with CD40L (10 μg/ml) and subsequent detection with anti-PentaHis antibody (Qiagen).
(§2) Flow cytometric analyses, as well as platelet activation assays and quantification of leukocyte-platelet aggregates were performed as previously described (Quezada et al., Ann. Rev. Immunol. (2004), pp 307-328). Briefly, murine blood samples were taken by intracardiac puncture. Red cells were lyzed in 155 mM NH4Cl, 5.7 mM K2HPO4, 0.1 mM EDTA, pH 7.3. […] Antibodies for epitope specific fluorescence-activated cell sorting (FACS Calibur, BD) included anti-CD11b, anti-CD115, anti-Gr-1, anti-CD4, anti-CD8, anti-CD20, anti-CD41, anti-CD62P, anti-CD54, anti-CD102, and anti-CD106 (all from Ebioscience). Binding of cM7 to CD40L- or mock-transfected murine fibroblasts was determined by incubation of FITC-cM7 at the indicated concentrations with cells for 30 min at 37° C. and subsequent quantification of the fluorescence in the FL-1 channel. […]

CD40L = molecular target: T1, CD40L (Homo sapiens, UniProt P29965); experiment: Solid phase assay: direct binding of biotinylated CD40L to immobilized peptides
T1 construct: inserting the coding DNA for amino acids E^108 to L^261 in pHOG-21; c-myc (N); His (N); trimerization domain (N); made in house; host or cells: E. coli TG-1
T1 sequence (P29965 108-261): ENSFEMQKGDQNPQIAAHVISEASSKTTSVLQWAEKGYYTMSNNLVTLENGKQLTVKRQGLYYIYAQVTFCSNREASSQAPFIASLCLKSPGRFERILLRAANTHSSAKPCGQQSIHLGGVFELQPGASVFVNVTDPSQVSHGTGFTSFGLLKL
Procedure: (§3) Solid phase binding assay. Recombinant CD40L was incubated with immobilized Mac-1 I-domain in the presence or absence of blocking peptides. Binding of sCD40L was detected by addition of anti-cmyc-HRP (Invitrogen), TMB-substrate (Pierce), and colorimetric reaction. Alternatively, CD40L (Provitro) was immobilized, and binding of the recombinant Mac-1 I-domain was quantified by addition of anti-His-Biotin (Qiagen), and HRP-coupled streptavidin (Pierce). For the binding to immobilized peptides, CD40L was biotinylated with the Micro Biotinylation Kit (Sigma). A mixture of equal molarities of all peptides served as the positive control in this assay.
The recombinant Mac-1 I-domain was immobilized in 96-well plates (Nunc) in PBS at 4° C. overnight. […] Effect of the peptides M1-M8 was assessed by incubating CD40L (10 μg/ml) in the presence of peptides (50 μM). […] Binding was quantified by addition of TMB-substrate (Pierce), colorimetric reaction at 450 nm. […] Binding of the recombinant Mac-1 I-domain was quantified by addition of anti-His-Biotin monoclonal antibody (Qiagen), HRP-coupled streptavidin (Pierce) and colorimetric reaction at 450 nm. […] For quantification of the binding of CD40L to peptides, peptides were immobilized in 96-well plates overnight at 4° C. in 50 mM sodium carbonate, pH 10.6. […] Absorbance on BSA-coated wells served as negative control and was subtracted.

[2] = molecular target: T2, CD40L binding to Mac-1 I-domain (Homo sapiens, UniProt P29965); experiment: Solid phase binding assay: blocking of CD40L binding to immobilized Mac-1 I-domain by peptides; conditions: for blocking of CD40L / Mac-1 I-domain binding: peptides 50 μM
T2 construct: inserting the coding DNA for amino acids E^108 to L^261 in pHOG-21; His (N); trimerization domain (N); made in house
T2 sequence (P29965 108-261): T1 sequence (P29965 108-261)
Procedure: as §3
The recombinant Mac-1 I-domain was immobilized in 96-well plates (Nunc) in PBS at 4° C. overnight. After blocking in 2% BSA/PBS and subsequent washing with PBS, recombinant CD40L was added to the wells in the indicated concentrations and incubated for 2 hours at 37° C. Effect of the peptides M1-M8 was assessed by incubating CD40L (10 μg/ml) in the presence of peptides (50 μM). After removing of unbound CD40L by washing with 0.1% Tween-20/PBS, anti-c-myc-HRP (Invitrogen) was added and incubated for 2 hours at room temperature. Binding was quantified by addition of TMB-substrate (Pierce), colorimetric reaction at 450 nm. Alternatively, CD40L without a His-tag (Provitro) was immobilized and blocked as described above. Binding of the recombinant Mac-1 I-domain was quantified by addition of anti-His-Biotin monoclonal antibody (Qiagen), HRP-coupled streptavidin (Pierce) and colorimetric reaction at 450 nm. For the specific binding of the Mac-1 I-domain BSA-coated wells were subtracted from the CD40L-coated. Kd was estimated using a one-site binding hyperbola nonlinear regression model with the Software Prism (Graphpad). For quantification of the binding of CD40L to peptides, peptides were immobilized in 96-well plates overnight at 4° C. in 50 mM sodium carbonate, pH 10.6. CD40L was biotinylated using the Micro-Biotinylation-Kit (Sigma) following the manufacturer's instructions and detected by HRP-coupled streptavidin (Pierce) and colorimetric reaction. A mixture of equal molarities of all peptides served as positive control. Absorbance on BSA-coated wells served as negative control and was subtracted.

[3] = tested on: human granulocytes and monocytes; experiment: Flow cytometry: binding of CD40L to human granulocytes and monocytes; format: cell-based
Procedure: as §1, §2

[4] = tested on: adhesion of THP-1 cells to CD40L; experiment: Static adhesion assay: activated THP-1 cells on immobilized CD40L; format: cell-based; conditions: peptides 50 μM
Procedure: (§4) 96-well plates (Nunc) were coated with sCD40L and incubated with CHO cells expressing constitutively activated Mac-1, as described previously, or THP-1 cells. Cells were allowed to adhere for 20 to 50 minutes. Blocking antibodies (10 μg/ml) were pre-incubating with the cells. As indicated, assays were carried out in the presence of peptides (50 μM). Permeabilization buffer (6 mg/ml phosphatase substrate (Sigma), 1% Triton X-100, 50 mM sodium acetate, pH 5.5) was added to quantify adhering cells by colorimetric reaction. Alternatively, adhering cells were counted. Murine EC were isolated as previously described. Mac-1 expressing CHO were loaded with CFDA-SE (Invitrogen), allowed to adhere for 45 minutes, and quantified under the fluorescence microscope. […] Adhering and rolling cells were quantified in a parallel flow chamber system (Glycotech) at the indicated shear rates and in the presence of the indicated peptides (1 μM) or antibodies (10 μg/ml). […]
96-well plates (Nunc) were coated with sCD40L (10 μg/ml) in PBS overnight at 4° C. […] After removal of unbound cells by washing with PBS, permeabilization buffer (6 mg/ml phosphatase substrate (Sigma), 1% Triton X-100, 50 mM sodium acetate, pH 5.5) was added for 1 hour at 37° C. and adhering cells were quantified by colorimetric reaction at 405 nm. Alternatively, adhering cells were counted under the microscope (Zeiss). […]

[5] = tested on: adhesion of Mac-1-CHO cells to GPIbα; experiment: Dynamic flow chamber assay: Mac-1-CHO cells on GPIbα; format: cell-based; conditions: peptides 1 μM
Procedure: as §4
For dynamic adhesion assays, 35 mm dishes were coated overnight at 4° C. with 1% BSA, CD40L, GPIbα (Abnova), ICAM-1 (R&D systems) or fibrinogen (Sigma), at a concentration of 10 μg/ml, and 30 μg/ml, respectively. […] Cells were quantified under the microscope (Olympus). […] Adhesion and rolling of peritoneal exudate cells on isolated murine endothelial cells was quantified as described above. […]

Row | Sequence | blocking of binding of CD40L to Mac-1-CHO cells [1] | direct binding of CD40L to immobilized peptide (CD40L) | IC50 ([2]; concentration dependent) [µM] | blocking of CD40L / Mac-1 I-domain binding [2] | blocking of binding of CD40L to human granulocytes and monocytes [3] | blocking of adhesion of THP-1 cells to CD40L [4] | effect on adhesion of Mac-1-CHO cells to GPIbα [5]
1 | EQLKKSKTL [Peptide M7] | neutralized binding of CD40L | mediated direct binding to CD40L | ~4 | emerged as potential candidate inhibitors | the only peptide blocking binding of CD40L to human granulocytes and monocytes | most efficiently blocked adhesion of THP-1 cells to CD40L | –
2 | PITQLLGRTHTATGIRK (therapeutically active peptide) [Peptide M2, GPIbα-specific control peptide] | – | – | – | not affecting CD40L-Mac-1 binding | – | – | blocked the interaction between Mac-1 and GPIbα
